Laboratory results from patent EP0326329B1, “Quinazoline derivatives useful as insecticides” (Dow AgroSciences LLC, priority 1988, dated 1989).

Legend:
Type in all cases: in vivo
[1] = tested on: Twospotted spider mites (Tetranychus urticae Koch); assay: Mite/insect screen, sprayed squash cotyledons (SM); details: percent mortality; for mortality at 200 ppm / mortality at 400 ppm: Tetranychus urticae, read-out: SM RESULTS %; for mortality at 200 ppm: spray rate 200 ppm
Outline: (§1)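 Mortality and phytotoxicity read after standard exposure periods on sprayed squash: cotyledons for melon aphids and twospotted spider mites, excised leaves placed with southern armyworm larvae. Spray solutions were water dilutions of acetone/alcohol stocks containing TOXIMUL R and S emulsifiers, applied to runoff at 10 psi and air-dried one hour.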

[2] = tested on: Southern corn rootworm (Diabrotica undecimpuctata howardi Barber); assay: Mite/insect screen, soil treatment (CRW); details: percent mortality, soil treatment; for mortality at 12 ppm / mortality at 24 ppm: Diabrotica, read-out: CRW RESULTS %; for mortality at 12 ppm: CRW rate 12.00 ppm
Outline: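 Five 2–3 instar larvae were placed on dry sandy soil with a presoaked corn seed after the soil had received 1 mL of compound solution and dried 6–12 h; cups were kept capped at 23°C. Mortality (%) and phytotoxicity were read after standard exposure. Formulation: acetone/alcohol with emulsifiers, water-diluted.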

[3] = tested on: Pyricularia oryzae (rice blast); details: disease control rating, foliar spray, host rice; 400 ppm (+++ at 100 ppm)
[4] = tested on: Pseudoperonospora cubensis (downy mildew); assay: Greenhouse Test 1, foliar spray fungicide screen (DOWN MDEW), host squash; details: disease control rating, 400 ppm (+++ at 100 ppm)
[5] = tested on: Puccinia recondita tritici (leaf rust); assay: Greenhouse Test 1, foliar spray fungicide screen (LEAF RUST), host wheat; details: disease control rating, 400 ppm (+++ at 100 ppm)
[6] = tested on: southern armyworm (Spodopetra eridania Cramer); assay: Mite/insect screen, sprayed squash leaves (SAW); details: percent mortality; for mortality at 200 ppm / mortality at 400 ppm: Spodoptera eridania, read-out: SAW RESULTS %; for mortality at 200 ppm: spray rate 200 ppm
Outline: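 Water-diluted formulations of each compound (acetone/alcohol 50:50 with 23 g/L and 13 g/L emulsifier blends) are sprayed over both leaf faces to runoff. After a standard exposure period, percent kill and phytotoxicity are recorded.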

[7] = tested on: Botrytis cinerea (gray mold); assay: Greenhouse Test 1, foliar spray fungicide screen (GRAY MOLD), host grape berries; details: disease control rating, 400 ppm (+++ at 100 ppm)
[8] = tested on: Erysiphe graminis tritici (powdery mildew); assay: Greenhouse Test 1, foliar spray fungicide screen (POWD MDEW), host wheat; details: disease control rating, 400 ppm (+++ at 100 ppm)
[9] = tested on: melon aphids (Aphis gossypii Glover); assay: Mite/insect screen, sprayed squash cotyledons (MA); details: percent mortality; for mortality at 200 ppm / mortality at 400 ppm: Aphis gossypii, read-out: MA RESULTS %; for mortality at 200 ppm: spray rate 200 ppm
Outline: as §1

Row | SMILES | mortality at 200 ppm [1] | mortality at 400 ppm ([1]; spray rate 400 ppm) | mortality at 12 ppm [2] | mortality at 24 ppm ([2]; CRW rate 24.00 ppm) | RICE BLAST [3] | DOWN MDEW [4] | LEAF RUST [5] | mortality at 200 ppm [6] | mortality at 400 ppm ([6]; spray rate 400 ppm) | GRAY MOLD [7] | POWD MDEW [8] | mortality at 200 ppm [9] | mortality at 400 ppm ([9]; spray rate 400 ppm) | SM RESULTS % ([1]; spray rate 400 ppm) | CRW RESULTS % ([2]; CRW rate 24.00 ppm) | SAW RESULTS % ([6]; spray rate 400 ppm) | MA RESULTS % ([9]; spray rate 400 ppm)
1 | Fc1cccc2c(OCCc3ccc(Cl)cc3)ncnc12 [Example 55, 4-[2-(4-chlorophenyl)ethoxy]-8-fluoroquinazoline] | 100% | 0% | 0% | 0% | +++ (+++ = 90-100% control at 100 ppm) | +++ (+++ = 90-100% control at 100 ppm) | +++ (+++ = 90-100% control at 100 ppm) | 100% | 0% | - (- = 0-19% control at 400 ppm) | +++ (+++ = 90-100% control at 100 ppm) | 100% | 0% | – | – | – | –
2 | COc1ccc(CCOc2ncnc3c(F)cccc23)cc1 [Example 132, 8-fluoro-4-[2-(4-methoxyphenyl)ethoxy]quinazoline] | 20% | 0% | 0% | 0% | +++ (+++ = 90-100% control at 100 ppm) | +++ (+++ = 90-100% control at 100 ppm) | +++ (+++ = 90-100% control at 100 ppm) | 0% | 0% | - (- = 0-19% control at 400 ppm) | +++ (+++ = 90-100% control at 100 ppm) | 80% | 0% | – | – | – | –
3 | CCC(COc1ncnc2ccccc12)c1ccc(-c2ccccc2)cc1 (centres unmarked) [Example 142, 4-[2-(1,1'-biphenyl)-4-ylbutoxy]quinazoline] | – | 60% | – | 0% | ++ (++ = 90-100% control at 400 ppm) | - (- = 0-19% control at 400 ppm) | + (+ = 20-89% control at 400 ppm) | – | 0% | - (- = 0-19% control at 400 ppm) | + (+ = 20-89% control at 400 ppm) | – | 30% | – | – | – | –
4 | FC(F)(F)c1ccccc1CCOc1ncnc2ccccc12 [Example 47, 4-[2-[2-(trifluoromethyl)phenyl]ethoxy]quinazoline] | – | 0% | – | 0% | +++ (+++ = 90-100% control at 100 ppm) | +++ (+++ = 90-100% control at 100 ppm) | +++ (+++ = 90-100% control at 100 ppm) | – | 0% | - (- = 0-19% control at 400 ppm) | +++ (+++ = 90-100% control at 100 ppm) | – | 0% | – | – | – | –
5 | CC(C)(C)c1ccc(CCOc2ncnc3cc(Cl)ccc23)cc1 [Example 136, 7-chloro-4-[2-[4-(1,1-dimethylethyl)phenyl]ethoxy]quinazoline] | 0% | 0% | 0% | 0% | - (- = 0-19% control at 400 ppm) | - (- = 0-19% control at 400 ppm) | - (- = 0-19% control at 400 ppm) | 100% | 0% | - (- = 0-19% control at 400 ppm) | - (- = 0-19% control at 400 ppm) | 0% | 0% | – | – | – | –
6 | CCOc1ccc(CCCOc2ncnc3ccccc23)cc1 [Example 158, 4-[3-(4-ethoxyphenyl)propoxy]quinazoline] | 0% | 60% | 0% | 0% | ++ (++ = 90-100% control at 400 ppm) | +++ (+++ = 90-100% control at 100 ppm) | + (+ = 20-89% control at 400 ppm) | 0% | 0% | - (- = 0-19% control at 400 ppm) | + (+ = 20-89% control at 400 ppm) | 0% | 40% | – | – | – | –
7 | FC(F)(F)c1cccc(CCOc2ncnc3ccccc23)c1 [Example 51, 4-[2-[3-(trifluoromethyl)phenyl]ethoxy]quinazoline] | – | 0% | – | 0% | +++ (+++ = 90-100% control at 100 ppm) | +++ (+++ = 90-100% control at 100 ppm) | ++ (++ = 90-100% control at 400 ppm) | – | 0% | - (- = 0-19% control at 400 ppm) | ++ (++ = 90-100% control at 400 ppm) | – | 0% | – | – | – | –
8 | CCC(COc1ncnc2c(F)cccc12)c1ccc(-c2ccccc2)cc1 (centres unmarked) [Example 197, 8-fluoro-4-[2-(1,1'-biphenyl)-4-ylbutoxy)quinazoline] | 80% | 0% | 0% | 0% | + (+ = 20-89% control at 400 ppm) | - (- = 0-19% control at 400 ppm) | - (- = 0-19% control at 400 ppm) | 0% | 0% | - (- = 0-19% control at 400 ppm) | + (+ = 20-89% control at 400 ppm) | 80% | 0% | – | – | – | –
9 | CC(CNc1ncnc2c(F)cccc12)c1ccc(Cl)cc1 (centres unmarked) [Example 17, N-[2-(4-chlorophenyl)propyl]-8-fluoro-4-quinazolinamine] | – | 100% | – | 0% | +++ (+++ = 90-100% control at 100 ppm) | +++ (+++ = 90-100% control at 100 ppm) | +++ (+++ = 90-100% control at 100 ppm) | – | 0% | - (- = 0-19% control at 400 ppm) | ++ (++ = 90-100% control at 400 ppm) | – | 100% | – | – | – | –
10 | CC(C)(C)c1ccc(CCOc2ncnc3ccc(Br)cc23)cc1 [Example 175, 6-bromo-4-[2-[4-(t-butyl)phenyl]ethoxy]quinazoline] | 60% | 0% | 0% | 0% | ++ (++ = 90-100% control at 400 ppm) | - (- = 0-19% control at 400 ppm) | + (+ = 20-89% control at 400 ppm) | 100% | 0% | - (- = 0-19% control at 400 ppm) | - (- = 0-19% control at 400 ppm) | 80% | 0% | 0% | 0% | 0% | 0%
11 | Fc1cccc2c(OCCc3cccc(Oc4ccccc4)c3)ncnc12 [Example 163, 8-fluoro-4-[2-(3-phenoxyphenyl)ethoxy]quinazoline] | 0% | 20% | 0% | 0% | +++ (+++ = 90-100% control at 100 ppm) | +++ (+++ = 90-100% control at 100 ppm) | +++ (+++ = 90-100% control at 100 ppm) | 80% | 40% | - (- = 0-19% control at 400 ppm) | +++ (+++ = 90-100% control at 100 ppm) | 80% | 80% | – | – | – | –
